# Assay results: ChEMBL document CHEMBL1152802, “Discovery of novel Trypanosoma cruzi glyceraldehyde-3-phosphate dehydrogenase inhibitors” (Bioorg Med Chem, 2009)
# Key:
# [1] = biological target: Glyceraldehyde-3-phosphate dehydrogenase, glycosomal (Trypanosoma cruzi, UniProt P22513); test: (§1) Inhibition of Trypanosoma cruzi recombinant glycosomal GAPDH expressed in Escherichia coli by spectrophotometry
# [2] = biological target: Glyceraldehyde-3-phosphate dehydrogenase, glycosomal (Trypanosoma cruzi) (UniProt P22513); test: as §1; conditions: concentration not given here
# Glyceraldehyde-3-phosphate dehydrogenase, glycosomal (Trypanosoma cruzi), sequence (P22513 whole entry): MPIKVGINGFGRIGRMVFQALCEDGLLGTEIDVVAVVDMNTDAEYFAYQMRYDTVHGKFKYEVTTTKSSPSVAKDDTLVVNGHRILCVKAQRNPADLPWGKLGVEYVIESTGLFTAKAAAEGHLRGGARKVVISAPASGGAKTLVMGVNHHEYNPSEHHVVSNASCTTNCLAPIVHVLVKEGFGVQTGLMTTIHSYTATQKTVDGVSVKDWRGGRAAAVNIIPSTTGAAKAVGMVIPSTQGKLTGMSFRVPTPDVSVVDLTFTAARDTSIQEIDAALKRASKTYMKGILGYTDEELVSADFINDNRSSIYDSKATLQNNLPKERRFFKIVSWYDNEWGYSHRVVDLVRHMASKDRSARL
# Trypanosoma cruzi [3] = test: Antitrypanosomal activity against Trypanosoma cruzi amastigote forms; assay type: functional, organism-based
# Trypanosoma cruzi [4] = test: Antitrypanosomal activity against Trypanosoma cruzi amastigote forms at 841 uM; assay type: functional
# Leishmania amazonensis = test: Antileishmanial activity against Leishmania amazonensis amastigote forms at 841 uM; assay type: functional
# Ehrlich = test: Cytotoxicity against mouse Ehrlich carcinoma cells; assay type: functional, cell-based
# Glyceraldehyde-3-phosphate dehydrogenase, glycosomal, sequence (P22513 whole entry): as above
Structure (SMILES),IC50 [1] [µM],also measured
CCC/C=C/C/C=C/CCCCCCCc1cccc(O)c1C(=O)O,69,
O=c1ccc2ccccc2o1 [COUMARIN],692,
C[C@H]1[C@H](C)CC[C@]2(C(=O)O)CC[C@]3(C)C(=CC[C@@H]4[C@@]5(C)CC[C@H](O)C(C)(C)[C@@H]5CC[C@]43C)[C@H]12 [URSOLIC ACID],,inhibition [2]: 25%; IC50 (Trypanosoma cruzi [3]): 4 µM
C=CC/C=C/C/C=C/CCCCCCCc1cccc(O)c1C(=O)O,38,
O=c1ccc2ccc(O)cc2o1 [UMBELLIFERONE],617,
COc1cc2oc(-c3cc(OC)c(OC)c(OC)c3)cc(=O)c2cc1OC,81,
C=CC(C)(C)c1cc2cc3c(cc2oc1=O)O[C@H](C(C)(C)O)C3 [CHALEPIN],64,
COc1ccc(-c2coc3cc(O)c(OC)cc3c2=O)cc1 [CASTANIN],84,
O=c1c(O)c(-c2ccc(O)c(O)c2)oc2cc(O)cc(O)c12 [QUERCETIN],142,IC50 (Trypanosoma cruzi [3]): 771 µM

# The next lines start with results.
IC50 [1] [µM],Structure (SMILES),also measured
12,COc1cccc(C(=O)N[C@@H]2[C@H](O)[C@@H](CO)O[C@H]2n2cnc3c(NCc4cccc5ccccc45)ncnc32)c1,
17.8,CC(=O)Oc1ccc(-c2cc3cc(OC(C)=O)c(OC(C)=O)cc3oc2=O)cc1OC(C)=O,
161,CCCCCC/C=C/CCCCCCCc1cccc(O)c1C(=O)O,
140,O=c1c(O[C@@H]2OC[C@H](O)[C@H](O)[C@H]2O)c(-c2ccc(O)c(O)c2)oc2cc(O)cc(O)c12 [GUAJAVERIN],
149,O=c1c2cc(O)c(O)cc2oc2cc(O)c([C@@H]3O[C@H](CO)[C@@H](O)[C@H](O)[C@H]3O)c(O)c12 [MANGIFERIN],
46,O=C(/C=C/c1ccc(O)cc1)OC[C@H]1O[C@@H](Oc2c(-c3ccc(O)cc3)oc3cc(O)cc(O)c3c2=O)[C@H](O)[C@@H](O)[C@@H]1O [TILIROSIDE],Activity (Trypanosoma cruzi [4]): 45%; Activity (Leishmania amazonensis): 67.8%; IC50 (Ehrlich): 69.5 µM
5,COc1cccc(C(=O)N[C@@H]2[C@H](O)[C@@H](COP(=O)(O)O)O[C@H]2n2cnc3c(NCc4cccc5ccccc45)ncnc32)c1,
